Key:
wireworm = assay: efficacy trial against endo-parasite wireworm; assay type: in vivo, cattle; settings: ~200 kg cow, slaughtered 3 weeks after treatment
Protocol: The purpose of the trial was to establish the efficacy of biologically active agent when administered by the system according to the present invention in treating cattle for the endo-parasite wireworm.
Two cattle of similar age and weight (˜200 kg) were infected with wireworm parasite to the level of 6000 to 8000 worm eggs per gram of faeces. One cow was treated with the biologically active agent in its ‘pour on’ form and the other cattle were treated with two dosage projectiles fired from a distance of approx 20 meters with a CO2 propelled launcher with an impact velocity of about 130 ft/sec.
Each projectile was spherical and made from soft gelatine compound with the shell being of about 2 mm thick. The size was sufficient to hold about 10 ml of the liquid biologically active agent comprising the following constituent:
10 mg of abamectin (at a dosage concentration of 1 mg per 10 kg of body mass)
5% solution of the solvent/transdermal carrier propylene glycol (the proprietary brand Icinol)
a standard turquoise, inert pharmaceutical colorant known as FC & D blue
The impact area of the ruptured projectiles was the hind quarter and lower neck/shoulder of the cattle.
The cattle were slaughtered 3 weeks after treatment and the stomach contents/linings examined under laboratory conditions.

[1] = drug trials: absorption of abamectin from projectile vs Pour On; assay type: in vivo; settings: applied in a projectile at 5 g/l
Description: The system has been adapted for use in Africa for treating antelope species. Each projectile was designed to treat a 100 kg animal.

[2] = primate skin types in contact with pure ivermectin; cited from earlier work

Row | Substance | free of parasite (wireworm; 'pour on' form) | free of internal parasite infection (wireworm; two dosage projectiles) | absorption of the active compared with traditional Pour On application ([1]; antelope species) | absorption of the active compared with traditional Pour On application ([1]; cattle) | active agent absorbed into the bloodstream [2]
1 | abamectin | approx 96% | 100% | at least as good as | at least as good as | –
2 | ivermectin [pure ivermectin] | – | – | – | – | less than 1%

Reference: US8802135B2, “Delivery system for remote treatment of an animal” (SmartVet Pty Ltd., priority 2006, dated 2014)
